Like-named read-outs stand apart in the source and are kept apart here.
How the values were obtained:
[1] = clinical; conditions: human, in vivo
Description: All infusions were administered over 3 hours. Intensive plasma and urine PK sampling was obtained after dosing and assayed using validated HPLC/MS methods.

[2] = Plasma protein binding; type: in vitro ADME
[3] = clinical; conditions: both, human, in vivo
Description: (§1) A total of twenty-five (n=25) male and female subjects who met the study entry criteria and completed all phases of the pharmacokinetic study were included in this pharmacokinetic analysis. […] Blood samples were collected to measure drug concentrations in plasma prior to (time 0), and at 1.5, 2.95, 3.083, 3.25, 3.5, 4, 6, and 8 hours after the start of a 3-hour intravenous infusion of the third combination dose.
Urea has been commonly used as an endogenous marker to estimate the apparent volume of ELF. Blood samples to determine plasma urea concentrations were obtained just prior to scheduled bronchoscopy. Aliquots of BAL were obtained to determine urea concentrations in BAL and cell count with differential. The standardized bronchoscopy with BAL procedure for the collection of intrapulmonary samples has been previously described in the references listed below.
(§2) (Reports MC14B-0013, MC14B-0015, MC14I-011, and MC14I-0012). The urea concentrations in plasma and BAL were performed with a microplate-based method with an 0-phthalaldehyde chromogenic solution at MicroConstants, Inc., San Diego, Calif.
The calculations of ELF volume and drug concentrations in ELF and AM were performed with BAL supernatant and pulmonary (alveolar) cells (“cell pellet”) from aspirates recovered from the 2nd, 3rd, and 4th instillations (BAL2). The concentration of drug (ABXELF) in the epithelial lining fluid (ELF) was determined as follows:
[…]
VELF is derived from the following:
where UreaBAL is the concentration of urea in BAL fluid and UreaP is the concentration of urea in plasma.
The concentration of drug (ABXAM) in the alveolar cells (AC) was determined as follows:
Differential cell count was performed to determine the number of macrophages present. A mean macrophage cell volume of 2.42 μl/106 cells was used in the calculations for volume of alveolar cells in the pellet suspension.
The concentration ratios of ELF and AM to the simultaneous plasma concentrations were calculated for each subject and summarized for each group at each sampling time. […] The 8-hour sampling time was also used as a value at time zero for determining the area term of plasma, ELF, and AM. The AUC0-8 for each matrix was determined with the linear trapezoidal method. The ratio of AUC0-8 of ELF to plasma and AM to plasma were calculated.

[4] = Example 6: noncompartmental plasma pharmacokinetics after third dose of the Combination (2 g meropenem/2 g Compound I q8h); conditions: for AUC(0-t) / clearance / Cmax / Tmax / half-life: both, human, plasma, intravenous; for AUC(0-t): AUC0-8, meropenem 2 g q8h; for clearance: CL; for clearance / Cmax / Tmax / Vss: meropenem 2 g q8h; for half-life: t1/2, meropenem 2 g q8h
Description: as §1, §2
Peak plasma concentration (Cmax) and time to Cmax (Tmax) were read from the observed plasma concentration-time profile after the start of the intravenous infusion of the third Combination dose. Area under the plasma concentration-time curve over 8 hours (AUC0-8) after the third dose was calculated with the linear-log trapezoidal rule (WinNonlin®, version 6.3, Pharsight Corporation, Cary, N.C.). The elimination rate constant (β) was determined by nonlinear least-squares regression. Elimination half-life (t½) was calculated by dividing β into the natural logarithm of two.

[5] = clinical; conditions: human, in vivo; remark: listed apart in the source
Description: The combination of both drugs was administered on day 7. All drugs were infused over 3 hours. Plasma and urine samples were obtained and assayed using validated HPLC/MS methods.

[6] = Ratio of ELF to total Plasma concentration

Q: With `C[C@@H](O)[C@H]1C(=O)N2C(C(=O)O)=C(S[C@@H]3CN[C@H](C(=O)N(C)C)C3)[C@H](C)[C@H]12` [meropenem, Meropenem] as the compound, how does the “AUC(0-∞)” value [1] read?
A: 130.34 µg·h/mL

Q: And the Cmax [1]?
A: 42540 ng/mL

Q: And the half-life ([1]; Half-Life)?
A: 0.98 h

Q: What about the clearance ([1]; Plasma Clearance) of the same compound?
A: 334 mL/min

Q: And the Vd ([1]; Vss)?
A: 25.9 L

Q: And the fraction unbound [2]?
A: 0.94

Q: And the fraction unbound ([2]; human)?
A: 0.98

Q: What about the AUC(0-t) ([3]; AUC0-8 based on mean ELF concentrations) of the same compound?
A: 112 µg·h/mL

Q: And the AUC(0-t) ([3]; AUC0-8 based on median ELF concentrations)?
A: 102 µg·h/mL

Q: What about the concentration at 1.5 h ([3]; Concentration in ELF) of the same compound?
A: 21400 ± 4000 ng/mL

Q: What about the concentration at 3.25 h ([3]; Concentration in ELF) of the same compound?
A: 28300 ± 6700 ng/mL

Q: What about the concentration at 4 h ([3]; Concentration in ELF) of the same compound?
A: 16100 ± 4800 ng/mL

Q: And the concentration at 6 h ([3]; Concentration in ELF)?
A: 7520 ± 5290 ng/mL

Q: And the concentration at 8 h ([3]; Concentration in ELF)?
A: 2510 ± 1130 ng/mL

Q: And the concentration at 1.5 h ([3]; Concentration in Plasma)?
A: 41200 ± 5000 ng/mL

Q: What about the concentration at 3.25 h ([3]; Concentration in Plasma) of the same compound?
A: 47700 ± 7300 ng/mL

Q: What about the concentration at 4 h ([3]; Concentration in Plasma) of the same compound?
A: 23800 ± 4300 ng/mL

Q: What about the concentration at 6 h ([3]; Concentration in Plasma) of the same compound?
A: 7240 ± 2790 ng/mL

Q: What about the concentration at 8 h ([3]; Concentration in Plasma) of the same compound?
A: 1360 ± 510 ng/mL

Q: What about the Kp at 1.5 h [3, 6] of the same compound?
A: 0.525 ± 0.107

Q: What about the Kp at 3.25 h [3, 6] of the same compound?
A: 0.59 ± 0.079

Q: What about the Kp at 4 h [3, 6] of the same compound?
A: 0.705 ± 0.302

Q: And the Kp at 6 h [3, 6]?
A: 1.04 ± 0.475

Q: And the Kp at 8 h [3, 6]?
A: 2.13 ± 1.37

Q: And the Kp ([3]; intrapulmonary penetration based on AUC0-8 of ELF and total plasma concentrations)?
A: ~0.63

Q: What about the Kp ([3]; intrapulmonary penetration, unbound plasma concentrations) of the same compound?
A: 0.65

Q: And the Kp ([3]; mean ratios of ELF to simultaneous plasma concentrations (range))?
A: 0.525 to 2.13

Q: What about the Kp ([3]; ratio of ELF to total plasma concentrations based on mean AUC0-8) of the same compound?
A: 0.63

Q: And the Kp ([3]; ratio of ELF to total plasma concentrations based on median AUC0-8)?
A: 0.58

Q: What about the Kp ([3]; ratio of ELF to unbound plasma concentrations based on mean AUC0-8) of the same compound?
A: 0.65

Q: What about the Kp ([3]; ratio of ELF to unbound plasma concentrations based on median AUC0-8) of the same compound?
A: 0.59

Q: What about the AUC(0-t) ([4]; 1.5-hour BAL Sampling Group) of the same compound?
A: 168 ± 41.7 µg·h/mL

Q: And the AUC(0-t) ([4]; 3.25-hour BAL Sampling Group)?
A: 184 ± 29.7 µg·h/mL

Q: What about the AUC(0-t) ([4]; 4-hour BAL Sampling Group) of the same compound?
A: 196 ± 33.5 µg·h/mL

Q: And the AUC(0-t) ([4]; 6-hour BAL Sampling Group)?
A: 197 ± 38.7 µg·h/mL

Q: And the AUC(0-t) ([4]; 8-hour BAL Sampling Group)?
A: 182 ± 28.7 µg·h/mL

Q: What about the AUC(0-t) ([4]; All Subjects) of the same compound?
A: 186 ± 33.6 µg·h/mL

Q: And the clearance ([4]; 1.5-hour BAL Sampling Group)?
A: 208 mL/min

Q: What about the clearance ([4]; 3.25-hour BAL Sampling Group) of the same compound?
A: 185 mL/min

Q: And the clearance ([4]; 4-hour BAL Sampling Group)?
A: 175 mL/min

Q: And the clearance ([4]; 6-hour BAL Sampling Group)?
A: 173 mL/min

Q: And the clearance ([4]; 8-hour BAL Sampling Group)?
A: 187 mL/min

Q: What about the clearance ([4]; All Subjects) of the same compound?
A: 185 mL/min

Q: And the Cmax ([4]; 1.5-hour BAL Sampling Group)?
A: 56900 ± 19300 ng/mL

Q: And the Cmax ([4]; 3.25-hour BAL Sampling Group)?
A: 57900 ± 7500 ng/mL

Q: And the Cmax ([4]; 4-hour BAL Sampling Group)?
A: 59600 ± 7400 ng/mL

Q: And the Cmax ([4]; 6-hour BAL Sampling Group)?
A: 59400 ± 11500 ng/mL

Q: What about the Cmax ([4]; 8-hour BAL Sampling Group) of the same compound?
A: 57300 ± 9000 ng/mL

Q: And the Cmax ([4]; All Subjects)?
A: 58200 ± 10800 ng/mL

Q: And the Tmax ([4]; 1.5-hour BAL Sampling Group)?
A: 2.95 ± 0.01 h

Q: What about the Tmax ([4]; 3.25-hour BAL Sampling Group) of the same compound?
A: 3 ± 0.07 h

Q: What about the Tmax ([4]; 4-hour BAL Sampling Group) of the same compound?
A: 2.98 ± 0.06 h

Q: And the Tmax ([4]; 6-hour BAL Sampling Group)?
A: 2.98 ± 0.06 h

Q: What about the Tmax ([4]; 8-hour BAL Sampling Group) of the same compound?
A: 2.98 ± 0.06 h

Q: And the Tmax ([4]; All Subjects)?
A: 2.98 ± 0.06 h

Q: What about the half-life ([4]; 1.5-hour BAL Sampling Group) of the same compound?
A: 0.98 ± 0.05 h

Q: And the half-life ([4]; 3.25-hour BAL Sampling Group)?
A: 1.04 ± 0.13 h

Q: What about the half-life ([4]; 4-hour BAL Sampling Group) of the same compound?
A: 1.07 ± 0.15 h

Q: What about the half-life ([4]; 6-hour BAL Sampling Group) of the same compound?
A: 1.12 ± 0.24 h

Q: What about the half-life ([4]; 8-hour BAL Sampling Group) of the same compound?
A: 0.96 ± 0.13 h

Q: And the half-life ([4]; All Subjects)?
A: 1.03 ± 0.15 h

Q: And the Vss ([4]; 1.5-hour BAL Sampling Group)?
A: 17.5 ± 2.5 L

Q: What about the Vss ([4]; 3.25-hour BAL Sampling Group) of the same compound?
A: 16.7 ± 2.6 L

Q: What about the Vss ([4]; 4-hour BAL Sampling Group) of the same compound?
A: 15.3 ± 2.1 L

Q: And the Vss ([4]; 6-hour BAL Sampling Group)?
A: 16.1 ± 3.4 L

Q: And the Vss ([4]; 8-hour BAL Sampling Group)?
A: 15.6 ± 2.8 L

Q: What about the Vss ([4]; All Subjects) of the same compound?
A: 16.3 ± 2.6 L

Q: And the “AUC(0-∞)” value [5]?
A: 130.34 µg·h/mL

Q: And the Cmax [5]?
A: 42540 ng/mL

Q: What about the half-life ([5]; Half-Life) of the same compound?
A: 0.98 h

Q: And the clearance ([5]; Plasma Clearance)?
A: 334 mL/min

Q: And the Vd ([5]; Vss)?
A: 25.9 L

— US20190105337A1, “METHODS OF TREATING BACTERIAL INFECTIONS” (priority 2015, published 2019)
